Here are results for 5 compounds from patent US11518746B2, “Nitrogen ring linked deoxyuridine triphosphatase inhibitors” (CV6 Therapeutics (NI) Limited, priority 2016, dated 2022).

A word on the IC50: it is the concentration that inhibits the measured activity by half.

Assay [1] addresses T1, Recombinant human deoxyuridine nucleotidohydrolase (dUTPase) (Homo sapiens, UniProt P33316).
T1 construct: made in house
T1 sequence (P33316 1-164 isoform P33316-2): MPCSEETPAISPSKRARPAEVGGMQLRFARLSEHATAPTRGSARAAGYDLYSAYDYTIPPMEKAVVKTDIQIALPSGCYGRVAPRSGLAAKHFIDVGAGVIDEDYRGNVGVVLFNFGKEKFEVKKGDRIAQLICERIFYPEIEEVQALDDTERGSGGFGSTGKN
Put plainly: dUTPase inhibition, fluorescence-based DNA polymerase assay. The class given is biochemical. As to conditions: for % relative inhibition vs. positive control: mean over three concentrations, typically 100, 50 and 25 μmol/L, compared to in-run positive control. The text has this:
Recombinant human deoxyuridine nucleotidohydrolase (dUTPase) is expressed and purified as described in Ladner R D, Carr S A, Huddleston M J, McNulty D E, Caradonna S J. J Biol Chem. 1996 Mar. 29; 271(13):7752-7. All drugs stocks are aliquoted and diluted as appropriate prior to use. The oligonucleotide primer, templates and fluorophore- and quencher-labeled detection probes are synthesized by Integrated DNA Technologies (Coralville, Iowa), subjected to polyacrylamide gel electrophoresis purification and reconstituted in Omnipur sterile nuclease-free water (EMD Chemicals USA, Gibbstown N.J.) at a stock concentration of 100 μmol/L. The two non-emissive (dark) quenching molecules incorporated into the detection probes include the Iowa black fluorescein quencher (IBFQ; absorption max 531 nm) and ZEN (non-abbreviation; absorption max 532 nm). The fluorescent label utilized is 6-FAM (5′-carboxyfluorescein; excitation max.=494 nm, emission max.=520 nm). Probes are further diluted to a working stock of 10 μmol/L and aliquoted to avoid repeated freeze/thaw cycles. AmpliTaq Gold DNA Polymerase, GeneAmp 10×PCR Buffer 2, MgCl2 and MicroAmp Optical 96-well Reaction Plates are purchased from Applied Biosystems (Carlsbad, Calif.). dNTPs are purchased individually at stock concentrations of 100 mmol/L from New England Biolabs at HPLC-certified >99% purity (Ipswich, Mass.).
Reaction mixtures contained primer, probe and template at an equimolar final concentration of 0.4 μmol/L. Magnesium chloride (MgCl2) is included at a final concentration of 2 mmol/L. Non-limiting dNTPs are included in the reaction mix in excess at a final concentration of 100 μmol/L (dUTP/dTTP is excluded). AmpliTaq Gold DNA polymerase is added at 0.875 U/reaction, 2.5 μl of 10×PCR buffer 2 added and nuclease-free ddH2O added to a final reaction volume of 25 μl. […] Thermal profiling and fluorescence detection is performed using a customized thermal program on board a Roche Lightcycler LC480 Instrument II. […] Raw fluorescence spectra for 6-FAM is measured at specified time intervals to follow assay progression on board a Roche LightCycler 480 Software Version 1.5 and exported and analyzed in Microsoft Excel (Microsoft, Redmond Wash.) and Prism (GraphPad Software, La Jolla Calif.). Fluorescence values for blank reactions (limiting dNTP omitted) are subtracted to give normalized fluorescence units (NFU) to account for background fluorescence.
Test compounds are screened in a fluorescence-based assay. […] This displacement effectively disrupts the Förster resonance energy transfer (FRET) and the resulting fluorescence detected upon excitation is directly proportional to the amount of the dUTP available in the assay for incorporation. […]

The subject of assay [2] is colorectal (HCT116 and SW620) cell line models. Kind of assay: MTS growth inhibition assay. The format is cell-based. As to conditions: increasing concentrations of 5-FU between 0 and 100 μmol/L. The procedure: The Cell Titer AQueous MTS assay (Promega) is carried out according to the manufacturers guidelines. […] The combination effect is determined by the combination index (CI) method utilizing Calcusyn software (Biosoft, Ferguson, Mo.). Fraction affected (FA) is calculated from the percent growth inhibition: FA=[…]. CI values <1, synergism; 1-1.2, additive and >1.2, antagonism.
Test compounds are evaluated for their antitumor activity in colorectal cancer cells using the MTS growth inhibition assay. HCT116 and SW620 cells are exposed to increasing concentrations of each agent for 72 hours and growth inhibition is directly compared to vehicle-treated controls. The NSCLC cell lines A549 and H1299 are exposed to increasing concentrations of each agent for 72 hours and growth inhibition is directly compared to vehicle-treated controls.
MTS growth inhibition assays are performed to evaluate the effectiveness of the test compounds alone and in combination with the fluoropyrimidine thymidylate synthase (TS) inhibitor 5-fluorouracil (5-FU) at inhibiting the growth of colorectal (HCT116 and SW620) cell line models. […] Simultaneous treatment with increasing concentrations of 5-FU and a test compound at fixed concentrations of 25 μmol/L is determined.
(In general: Formazan colour is commonly taken as a measure of viable cells.)

Assay [3] concerns colorectal (HCT116), breast (MCF-7) and non-small cell lung (H1299, A549, H358 and H460) cell line models. Put plainly: Colony forming assay. The format is cell-based. To be noted: increasing concentrations of FUdR between 0.5 and 2.5 μmol/L. The procedure:
Colony forming assay showing the ability of colon (SW620, HCT116), non-small cell lung (A549, H460, H1299 and H358) and breast (MCF7) cancer cells to survive and proliferate following transient 24 hour exposure to test compounds, FUdR and combinations are determined. Specifically, cells are seeded at densities between 50 and 100 cells/well in 24-well plates. Twenty-four hours later, cells are treated with increasing concentrations of a rtest compound, a fixed dose of FUdR and combinations of these. After 24 hours, drug is removed, cells are rinsed and allowed to outgrow for 10-14 days. At the conclusion of the outgrowth, cells are fixed in 60% ice cold methanol and stained with 0.1% crystal violet, scanned and counted. Data is presented as percentage of untreated controls (mean±SD). Fraction affected and combination indexes are calculated according to the method of Chou and Talalay where <1 is indicative of a synergistic drug interaction.
Colony forming assays are performed to evaluate the effectiveness of test compounds alone and in combination with the fluoropyrimidine thymidylate synthase (TS) inhibitor fluorodeoxyuridine (FUdR) at reducing cancer cell viability in colorectal (HCT116), breast (MCF-7) and non-small cell lung (H1299, A549, H358 and H460) cell line models. […]

With `O=C1CN(CCCC(=O)N2CCC[C@H]2C(O)(c2ccccc2)c2ccccc2)C(=O)N1` [Example 79, (5)-1-(4-(2-(hydroxydiphenylmethyl)pyrrolidin-1-yl)-4-oxobutyl)imidazolidine-2,4-dione], in assay [1], the concentration for half-maximal inhibition (IC50) amounted to 1000 nM and the “% relative inhibition vs. positive control” value was found to be 75%.
Regarding `CC(c1ccc(F)c(OCC2CC2)c1)C1CCCN1S(=O)(=O)CCCNC1CCC(=O)NC1=O` (stereo not drawn) [Example 82, 3-((3-((2-(1-(3-(cyclopropylmethoxy)-4-fluorophenyl)ethyl)pyrrolidin-1-yl)sulfonyl)propyl)amino)piperidine-2,6-dione], the “% relative inhibition vs. positive control” value in assay [1] is listed as 13%.
Turning to `O=c1[nH]cc(F)c(=O)[nH]1` [Example 5-FU, 5-fluorouracil], the growth inhibition entry in assay [2] is listed as “dose-dependent increases in growth inhibition”.
On to `O=c1[nH]c(=O)n([C@H]2C[C@H](O)[C@@H](CO)O2)cc1F` [FUdR, fluorodeoxyuridine], for which the colonies formed result in assay [3] is “dose-dependent decreases in colonies formed”.
For the compound `COc1ccc(NCCCS(=O)(=O)N2CCCC2C(C)c2ccc(F)c(OCC3CC3)c2)c(=O)[nH]1` (stereo not drawn) [Example 80, 3-((3-((2-(1-(3-(cyclopropylmethoxy)-4-fluorophenyl)ethyl)pyrrolidin-1-yl)sulfonyl)propyl)amino)-6-methoxypyridin-2(1H)-one], the “% relative inhibition vs. positive control” value in assay [1] worked out at 22%.
